Each structure is given as a SMILES string.

Assay [1] has as its target T1, MBP-16E6 (Human papillomavirus 16, UniProt P03126, C104S/C118S/C147S/C87S). Nature of the assay: biochemical.
In assay [2] the target is T1, MBP-16E6. The following applies: for Ratio to wild-type: N-terminal modified peptides, KD of WT divided by KD.
Setting [3] is: KD in nM, N-terminal modified peptides, competition mode, N = 2 or 3, SEM of curve fitting.
[4] abbreviates: competition KD, BLI competition, values in text.

T1 sequence (P03126 whole entry C104S/C118S/C147S/C87S, looked up): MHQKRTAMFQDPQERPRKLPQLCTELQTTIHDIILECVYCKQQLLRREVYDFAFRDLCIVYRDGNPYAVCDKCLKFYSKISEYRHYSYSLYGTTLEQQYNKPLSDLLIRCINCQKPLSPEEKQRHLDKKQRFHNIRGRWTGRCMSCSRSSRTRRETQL

`CC[C@H](C)[C@H](NC(=O)Cc1cc(=O)oc2cc(OC)ccc12)C(=O)N1CCC[C@H]1C(=O)N[C@@H](CCC(=O)O)C(=O)N[C@@H](CO)C(=O)N[C@@H](CO)C(=O)N[C@@H](CCC(=O)O)C(=O)N[C@@H](CC(C)C)C(=O)N[C@H](C(=O)N[C@@H](CC(C)C)C(=O)N[C@@H](CCC(N)=O)C(=O)N[C@@H](CCC(=O)O)C(=O)N[C@@H](CC(C)C)C(=O)N[C@@H](CC(C)C)C(=O)NCC(=O)N[C@@H](CCC(=O)O)C(=O)N[C@@H](CCC(=O)O)C(=O)N[C@@H](CCCNC(=N)N)C(=O)N[C@@H](CCCNC(=N)N)C(N)=O)[C@@H](C)O` [Peptide N20] gave a Kd in assay [1] (setting [3]) of 213 ± 47 nM. For the same molecule, in assay [2], the Ratio to wild-type was found to be 11.4.
For `CC[C@H](C)[C@H](NC(=O)c1ccc2cc(O)ccc2c1)C(=O)N1CCC[C@H]1C(=O)N[C@@H](CCC(=O)O)C(=O)N[C@@H](CO)C(=O)N[C@@H](CO)C(=O)N[C@@H](CCC(=O)O)C(=O)N[C@@H](CC(C)C)C(=O)N[C@H](C(=O)N[C@@H](CC(C)C)C(=O)N[C@@H](CCC(N)=O)C(=O)N[C@@H](CCC(=O)O)C(=O)N[C@@H](CC(C)C)C(=O)N[C@@H](CC(C)C)C(=O)NCC(=O)N[C@@H](CCC(=O)O)C(=O)N[C@@H](CCC(=O)O)C(=O)N[C@@H](CCCNC(=N)N)C(=O)N[C@@H](CCCNC(=N)N)C(N)=O)[C@@H](C)O` [Peptide N17] the same measures were 159 ± 47 nM and 15.3.
As for `CC[C@H](C)[C@H](NC(=O)c1ccc2c3c(cccc13)CC2)C(=O)N1CCC[C@H]1C(=O)N[C@@H](CCC(=O)O)C(=O)N[C@@H](CO)C(=O)N[C@@H](CO)C(=O)N[C@@H](CCC(=O)O)C(=O)N[C@@H](CC(C)C)C(=O)N[C@H](C(=O)N[C@@H](CC(C)C)C(=O)N[C@@H](CCC(N)=O)C(=O)N[C@@H](CCC(=O)O)C(=O)N[C@@H](CC(C)C)C(=O)N[C@@H](CC(C)C)C(=O)NCC(=O)N[C@@H](CCC(=O)O)C(=O)N[C@@H](CCC(=O)O)C(=O)N[C@@H](CCCNC(=N)N)C(=O)N[C@@H](CCCNC(=N)N)C(N)=O)[C@@H](C)O` [Peptide N19], the equilibrium dissociation constant (Kd) was 55 ± 12 nM in assay [1] (setting [3]) and under 70 nM in assay [1] (setting [4]). Moreover, the Ratio to wild-type in assay [2] is 44.4.
Consider `CC[C@H](C)[C@H](NC(=O)[C@@H](N)Cc1ccc(-c2ccccc2)cc1)C(=O)N1CCC[C@H]1C(=O)N[C@@H](CCC(=O)O)C(=O)N[C@@H](CO)C(=O)N[C@@H](CO)C(=O)N[C@@H](CCC(=O)O)C(=O)N[C@@H](CC(C)C)C(=O)N[C@H](C(=O)N[C@@H](CC(C)C)C(=O)N[C@@H](CCC(N)=O)C(=O)N[C@@H](CCC(=O)O)C(=O)N[C@@H](CC(C)C)C(=O)N[C@@H](CC(C)C)C(=O)NCC(=O)N[C@@H](CCC(=O)O)C(=O)N[C@@H](CCC(=O)O)C(=O)N[C@@H](CCCNC(=N)N)C(=O)N[C@@H](CCCNC(=N)N)C(N)=O)[C@@H](C)O` [Peptide N21], for which the Kd in assay [1] (setting [3]) was 1410 ± 757 nM; in assay [1] (setting [4]) it was 1410 nM. Also, the Ratio to wild-type in assay [2] was determined as 1.7. Also, in assay [2] (relative to fluorene-modified N1 / parent modification), the “decrease in binding by change of terminal group” value is ~ 27 fold.
With `CC[C@H](C)[C@H](NC(=O)CCCc1ccc2ccc3cccc4ccc1c2c34)C(=O)N1CCC[C@H]1C(=O)N[C@@H](CCC(=O)O)C(=O)N[C@@H](CO)C(=O)N[C@@H](CO)C(=O)N[C@@H](CCC(=O)O)C(=O)N[C@@H](CC(C)C)C(=O)N[C@H](C(=O)N[C@@H](CC(C)C)C(=O)N[C@@H](CCC(N)=O)C(=O)N[C@@H](CCC(=O)O)C(=O)N[C@@H](CC(C)C)C(=O)N[C@@H](CC(C)C)C(=O)NCC(=O)N[C@@H](CCC(=O)O)C(=O)N[C@@H](CCC(=O)O)C(=O)N[C@@H](CCCNC(=N)N)C(=O)N[C@@H](CCCNC(=N)N)C(N)=O)[C@@H](C)O` [Peptide N18], the Kd in assay [1] (setting [3]) turned out to be 106 ± 27 nM. Further, the Ratio to wild-type in assay [2] stood at 23.

Source of the values: patent publication US20260297131A1, “COMPOSITIONS AND METHODS FOR PEPTIDE-BASED MODULATORS OF HUMAN PAPILLOMAVIRUS ONCOPROTEIN E6” (priority 2023, published 2026).
